Among the data in ChEMBL document CHEMBL1134122, “Substituted indole-5-carboxamides and -acetamides as potent nonpeptide GnRH receptor antagonists” (Bioorg Med Chem Lett, 2001) are IC50 values, retold here.

As usually defined, the IC50 is the concentration that gives 50% inhibition.

For assay [1], the target named is T1, Gonadotropin-releasing hormone receptor (Rattus norvegicus, UniProt P30969).
T1 sequence (P30969 whole entry): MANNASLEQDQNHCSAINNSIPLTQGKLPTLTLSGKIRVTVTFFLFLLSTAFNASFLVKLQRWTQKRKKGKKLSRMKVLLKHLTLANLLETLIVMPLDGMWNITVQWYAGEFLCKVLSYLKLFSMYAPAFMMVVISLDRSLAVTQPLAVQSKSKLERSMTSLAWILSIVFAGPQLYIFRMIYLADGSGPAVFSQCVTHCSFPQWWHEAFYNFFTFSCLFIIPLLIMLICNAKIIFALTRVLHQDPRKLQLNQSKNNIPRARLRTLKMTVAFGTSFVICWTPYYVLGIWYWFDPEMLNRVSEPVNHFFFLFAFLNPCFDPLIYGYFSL
As to the kind of experiment: Inhibition of [125I]buserelin binding to rat pituitary Gonadotropin-releasing hormone receptor, in the presence of 0.1% bovine serum albumin.

Assay [2] has as its target T1, Gonadotropin-releasing hormone receptor. Put plainly: Inhibition of [125I]buserelin binding to rat pituitary Gonadotropin-releasing hormone receptor, in the absence of bovine serum albumin (BSA).
Assay [3] shares this target. Put plainly: Inhibition GnRH-stimulated luteinizing hormone (LH) release from rat pituitary cells. The assay is classed as functional, cell-based, Pituitary gland cell.

In the case of `Cc1cc(C)cc(-c2[nH]c3ccc(C(C)(C)C(=O)N4C(C)CCC4C)cc3c2CCNCCCCc2ccc(NS(C)(=O)=O)cc2)c1` (stereo not given), the half-inhibitory concentration (IC50) in assay [1] turned out to be 0.2 nM; in assay [2], 3 nM; in assay [3], 65 nM.
Turning to `CCN(C(=O)c1ccc2[nH]c(-c3cc(C)cc(C)c3)c(CCNCCCCc3ccc(NS(C)(=O)=O)cc3)c2c1)C(C)(C)C`, the IC50 was 0.8 nM in assay [1] and 660 nM in assay [3].
Take `CCN(CC)C(=O)c1ccc2[nH]c(-c3cc(C)cc(C)c3)c(CCNCCCCc3ccc(NS(C)(=O)=O)cc3)c2c1`: the IC50 in assay [1] was 0.2 nM; in assay [2] it was 2 nM; in assay [3], 270 nM.
Regarding `Cc1cc(C)cc(-c2[nH]c3ccc(C(=O)N(CC(C)C)CC(C)C)cc3c2CCNCCCCc2ccc(NS(C)(=O)=O)cc2)c1`, the IC50 in assay [1] amounted to 0.4 nM; in assay [3], 32 nM.
Take `Cc1cc(C)cc(-c2[nH]c3ccc(C(=O)N(C)C)cc3c2CCNCCCCc2ccc(NS(C)(=O)=O)cc2)c1`: the figures for the IC50 in assay [2] and in assay [3] were 2 nM and 690 nM, respectively.
Compound `Cc1cc(C)cc(-c2[nH]c3ccc(C(=O)N(CC(C)C)CC(C)C)cc3c2CCNCCCCc2ccc(O)cc2)c1` returned an IC50 in assay [3] of 380 nM.
Turning to `CCOC(=O)C(C)(C)c1ccc2[nH]c(-c3cc(C)cc(C)c3)c(CCNCCCCc3ccc(NS(C)(=O)=O)cc3)c2c1`, the IC50 in assay [1] was determined as 0.3 nM; in assay [2], 3 nM; in assay [3], 150 nM.
`CCCN(CCC)C(=O)c1ccc2[nH]c(-c3cc(C)cc(C)c3)c(CCNCCCCc3ccc(NS(C)(=O)=O)cc3)c2c1`: the figures for the IC50 in assay [2] and in assay [3] were 5 nM and 140 nM, respectively.
In the same order, the values of `CCCCN(CC)C(=O)c1ccc2[nH]c(-c3cc(C)cc(C)c3)c(CCNCCCCc3ccc(NS(C)(=O)=O)cc3)c2c1` are 4 nM and 240 nM.
On the same counts, the results for `CCOC(=O)c1ccc2[nH]c(-c3cc(C)cc(C)c3)c(CCNCCCCc3ccc(NS(C)(=O)=O)cc3)c2c1` are 14 nM and > 6200 nM.
For `Cc1cc(C)cc(-c2[nH]c3ccccc3c2CCNCCCCc2ccc(O)cc2)c1`, the IC50 in assay [3] was > 6200 nM.
Take `Cc1cc(C)cc(-c2[nH]c3ccc(CC(=O)N(C)C)cc3c2CCNCCCCc2ccc(NS(C)(=O)=O)cc2)c1`: the IC50 was found to be 0.1 nM in assay [1], 2 nM in assay [2] and 320 nM in assay [3].
As to `CCCN(CCC)C(=O)C(C)(C)c1ccc2[nH]c(-c3cc(C)cc(C)c3)c(CCNCCCCc3ccc(NS(C)(=O)=O)cc3)c2c1`, the IC50 amounted to 0.4 nM in assay [1], 5 nM in assay [2] and 70 nM in assay [3].
On the same counts, the results for `Cc1cc(C)cc(-c2[nH]c3ccc(C(C)(C)C(=O)N(C)C)cc3c2CCNCCCCc2ccc(NS(C)(=O)=O)cc2)c1` are 0.1 nM, 3 nM and 160 nM.
In the same order, the values of `Cc1cc(C)cc(-c2[nH]c3ccc(C(=O)N(C(C)C)C(C)C)cc3c2CCNCCCCc2ccc(NS(C)(=O)=O)cc2)c1` are 0.3 nM, 3 nM and 72 nM.
In the case of `CCOC(=O)c1ccc2[nH]c(-c3cc(C)cc(C)c3)c(CCNCCCCc3ccc(O)cc3)c2c1`, the IC50 in assay [2] is 32 nM.
On to `Cc1cc(C)cc(-c2[nH]c3ccc(C(=O)N4CCCC4)cc3c2CCNCCCCc2ccc(NS(C)(=O)=O)cc2)c1`, for which the IC50 in assay [1] came out at 0.2 nM; in assay [2], 4 nM; in assay [3], 510 nM.
On the same counts, the results for `CCOC(=O)C(C)c1ccc2[nH]c(-c3cc(C)cc(C)c3)c(CCNCCCCc3ccc(NS(C)(=O)=O)cc3)c2c1` (stereo not given) are 0.5 nM, 4 nM and 610 nM.
In the case of `Cc1cc(C)cc(-c2[nH]c3ccc(C(=O)N4CCOCC4)cc3c2CCNCCCCc2ccc(O)cc2)c1`, the IC50 came out at 4 nM in assay [2] and 800 nM in assay [3].
Turning to `Cc1cc(C)cc(-c2[nH]c3ccc(C(=O)N4CCOCC4)cc3c2CCNCCCCc2ccc(NS(C)(=O)=O)cc2)c1`, the results for the IC50 in assay [1], in assay [2] and in assay [3] were 0.2 nM, 2 nM and 400 nM, respectively.
On to `Cc1cc(C)cc(-c2[nH]c3ccc(C(C)(C)C(=O)N4CCCC4)cc3c2CCNCCCCc2ccc(NS(C)(=O)=O)cc2)c1`, for which the IC50 in assay [1] was 0.2 nM; in assay [2] it was 2 nM; in assay [3], 40 nM.
Consider `Cc1cc(C)cc(-c2[nH]c3ccc(C(=O)N(C)C)cc3c2CCNCCCCc2ccc(O)cc2)c1`, for which the IC50 was 5 nM in assay [2] and 820 nM in assay [3].
On the same counts, the results for `CCN(C(=O)c1ccc2[nH]c(-c3cc(C)cc(C)c3)c(CCNCCCCc3ccc(NS(C)(=O)=O)cc3)c2c1)C(C)C` are 3 nM and 120 nM.
Regarding `CCN(CC)C(=O)C(C)(C)c1ccc2[nH]c(-c3cc(C)cc(C)c3)c(CCNCCCCc3ccc(NS(C)(=O)=O)cc3)c2c1`, the results for the IC50 in assay [1], in assay [2] and in assay [3] were 0.2 nM, 2 nM and 42 nM, respectively.
For the compound `Cc1cc(C)cc(-c2[nH]c3ccc(C(=O)N4CCCCC4)cc3c2CCNCCCCc2ccc(NS(C)(=O)=O)cc2)c1`, the IC50 in assay [2] is 2 nM; in assay [3], 220 nM.
On to `Cc1cc(C)cc(-c2[nH]c3ccc(C(=O)N4C(C)CCC4C)cc3c2CCNCCCCc2ccc(NS(C)(=O)=O)cc2)c1` (stereo not given), for which the IC50 in assay [1] was determined as 0.2 nM; in assay [2], 3 nM; in assay [3], 95 nM.
On the same counts, the results for `CCN(CC)C(=O)Cc1ccc2[nH]c(-c3cc(C)cc(C)c3)c(CCNCCCCc3ccc(NS(C)(=O)=O)cc3)c2c1` are 0.2 nM, 3 nM and 130 nM.
In turn, `Cc1cc(C)cc(-c2[nH]c3ccc(OC(=O)N(C)C)cc3c2CCNCCCCc2ccc(O)cc2)c1` returned an IC50 in assay [2] of 3 nM.
Take `CCNC(=O)c1ccc2[nH]c(-c3cc(C)cc(C)c3)c(CCNCCCCc3ccc(NS(C)(=O)=O)cc3)c2c1`: the IC50 is 6 nM in assay [2] and 2400 nM in assay [3].
Turning to `CCN(CC)C(=O)C(C)c1ccc2[nH]c(-c3cc(C)cc(C)c3)c(CCNCCCCc3ccc(NS(C)(=O)=O)cc3)c2c1` (stereo not given), the IC50 in assay [1] was determined as 0.2 nM; in assay [2], 2 nM; in assay [3], 130 nM.
Take `Cc1cc(C)cc(-c2[nH]c3ccc(C(=O)N4C5CCC4CC5)cc3c2CCNCCCCc2ccc(NS(C)(=O)=O)cc2)c1`: the results for the IC50 in assay [1], in assay [2] and in assay [3] were 0.4 nM, 3 nM and 210 nM, respectively.
In turn, `Cc1cc(C)cc(-c2[nH]c3ccc(C(=O)NCc4ccccc4)cc3c2CCNCCCCc2ccc(O)cc2)c1` returned an IC50 in assay [2] of 24 nM.
Regarding `CCOC(=O)Cc1ccc2[nH]c(-c3cc(C)cc(C)c3)c(CCNCCCCc3ccc(NS(C)(=O)=O)cc3)c2c1`, the values for the IC50 in assay [2] and in assay [3] were 2 nM and 2000 nM, respectively.
Consider `Cc1cc(C)cc(-c2[nH]c3ccc(CC(=O)N4C(C)CCC4C)cc3c2CCNCCCCc2ccc(NS(C)(=O)=O)cc2)c1` (stereo not given), for which the results for the IC50 in assay [1], in assay [2] and in assay [3] were 0.1 nM, 3 nM and 95 nM, respectively.
Turning to `Cc1cc(C)cc(-c2[nH]c3ccc(C(C)(C)C(=O)N4CCOCC4)cc3c2CCNCCCCc2ccc(NS(C)(=O)=O)cc2)c1`, the IC50 in assay [1] amounted to 0.12 nM; in assay [3] it was 81 nM.
On to `CCN(CC)C(=O)c1ccc2[nH]c(-c3cc(C)cc(C)c3)c(CCNCCCCc3ccc(O)cc3)c2c1`, for which the IC50 in assay [1] came out at 0.5 nM; in assay [2], 6 nM; in assay [3], 540 nM.
